Assays:
[1] = DBA/2 mice; cited from earlier work
[2] = target: rat or human mGluR2 receptor (UniProt Q14416); assay: calcium ion (Ca2+) mobilization assay for allosteric modulators of mGluR2; format: cell-based; conditions: potency at approx. EC10 for glutamate; rat or human receptor not given; read-out: mGluR2 Potentiation (EC50)
Text: A calcium ion (Ca^2) mobilization assay was used to identify and determine the activity for allosteric modulators of the rat or human mGluR2 receptor. Two formats were used: (1) examine the ability of glutamate to affect the potency of the modulator, by looking at a concentration-response curve of compound at different submaximal glutamate concentrations, and (2) look at the ability of the modulator to affect the potency of glutamate by looking at a concentration-response curve of glutamate at a maximal modulator concentration.
To monitor functional receptor response using calcium mobilization, a cell line stably expressing the rat or human mGluR2 receptor (normally coupled to its intracellular effector molecules through an inhibitory G-protein, Gαi) and Gα16, in a tetracycline-inducible vector was created. Gα16 can promiscuously couple Gs and Gi-coupled receptors to the inositol phospholipid signaling pathway by activating phospholipase Cβ resulting in a Ca^2+ signal (normally Gαq-mediated), that can be monitored with fluorescence plate readers such as FLIPR (Molecular Devices, Fluorescence Imaging Plate Reader), FDSS6000 (Hamamatsu, Fluorescence Drug Screening System), or FlexStation (Molecular Devices). The Ca^2+ mobilization assay was based on the detection of intracellular calcium changes using a selective, calcium-chelating dye: Fluo-3, Fluo-4, or Calcium-3. A large fluorescence intensity increase was observed upon calcium association with the dye. The dye was delivered either with the acetoxy-methyl ester, and washed off, or using a no-wash kit (Molecular Devices). Fluorescence signals stimulated by glutamate were recorded and used to generate the following pharmacological parameters: (1) the potency (EC50) of the compound(s) of interest at approx. EC 10 for glutamate at the rat and human mGluR2 receptors respectively, and (2) a fold-shift of the glutamate EC50 by maximal concentration of compound(s) of interest.

[3] = pretreatment, healthy human subjects; cited from earlier work
[4] = pentylenetetrazole- and picrotoxin-induced; cited from earlier work
[5] = rat; cited from earlier work
[6] = compared to placebo; cited from earlier work
[7] = some animal models; cited from earlier work
[8] = mice; cited from earlier work

SMILES	EC50 [2] [µM]	also measured
N[C@H](C(=O)O)c1ccc(C(=O)O)c(O)c1 [(S)-4-carboxy-3-hydroxyphenylglycine]	–	protection against audiogenic seizures [1]: protects against audiogenic seizures
O=c1ccn2c(n1)O[C@H](COc1ccc3c(c1)CCC3)C2 [Comparative Ex. 1, (S)-2-(Indan-5-yloxymethyl)-2,3-dihydro-oxazolo[3,2-a]pyrimidin-7-one]	0.445	–
O=c1ccn2c(n1)O[C@H](COc1ccc3c(c1)CCCC3)C2 [Comparative Ex. 2, (S)-2-(5,6,7,8-Tetrahydro-naphthalen-2-yloxymethyl)-2,3-dihydro-oxazolo[3,2-a]pyrimidin-7-one]	0.224	–
CC1(C)CCc2cc(OC[C@H]3Cn4ccc(=O)nc4O3)ccc21 [Comparative Ex. 3, (R)-2-(1,1-Dimethyl-indan-5-yloxymethyl)-2,3-dihydro-oxazolo[3,2-a]pyrimidin-7-one]	9.1	–
CC1(C)CCc2cc(OC[C@@H]3Cn4ccc(=O)nc4O3)ccc21 [Example 1, (S)-2-(1,1-Dimethyl-indan-5-yloxymethyl)-2,3-dihydro-oxazolo[3,2-a]pyrimidin-7-one]	0.029	–
CC1(C)CCCc2cc(OC[C@@H]3Cn4ccc(=O)nc4O3)ccc21 [Example 2, (S)-2-(5,5-Dimethyl-5,6,7,8-tetrahydro-naphthalen-2-yloxymethyl)-2,3-dihydro-oxazolo[3,2-a]pyrimidin-7-one]	0.019	–
CC1(C)CCCCc2cc(OC[C@@H]3Cn4ccc(=O)nc4O3)ccc21 [Example 3, (S)-2-(5,5-Dimethyl-6,7,8,9-tetrahydro-5H-benzocyclohepten-2-yloxymethyl)-2,3-dihydro-oxazolo[3,2-a]pyrimidin-7-one]	0.011	–
CC1(C)CCC(C)(C)c2cc(OC[C@@H]3Cn4ccc(=O)nc4O3)ccc21 [Example 4, (S)-2-(5,5,8,8-Tetramethyl-5,6,7,8-tetrahydro-naphthalen-2-yloxymethyl)-2,3-dihydro-oxazolo[3,2-a]pyrimidin-7-one]	0.015	–
CCc1cn2c(nc1=O)O[C@H](COc1ccc3c(c1)CCC3(C)C)C2 [Example 7, (S)-2-(1,1-Dimethyl-indan-5-yloxymethyl)-6-ethyl-2,3-dihydro-oxazolo[3,2-a]pyrimidin-7-one]	0.02	–
CCc1cn2c(nc1=O)O[C@H](COc1ccc3c(c1)CCCC3(C)C)C2 [Example 8, (S)-2-(5,5-Dimethyl-5,6,7,8-tetrahydro-naphthalen-2-yloxymethyl)-6-ethyl-2,3-dihydro-oxazolo[3,2-a]pyrimidin-7-one]	0.017	–
CCC(F)(F)c1cc(=O)nc2n1C[C@@H](COc1ccc3c(c1)CCC3(C)C)O2 [Example 9, (S)-5-(1,1-Difluoro-propyl)-2-(1,1-dimethyl-indan-5-yloxymethyl)-2,3-dihydro-oxazolo[3,2-a]pyrimidin-7-one]	0.064	–
CCC(F)(F)c1cc(=O)nc2n1C[C@@H](COc1ccc3c(c1)CCCC3(C)C)O2 [Example 10, (S)-5-(1,1-Difluoro-propyl)-2-(5,5-dimethyl-5,6,7,8-tetrahydro-naphthalen-2-yloxymethyl)-2,3-dihydro-oxazolo[3,2-a]pyrimidin-7-one]	0.015	–
N[C@@]1(C(=O)O)CC[C@H]2[C@H](C(=O)O)[C@H]21 [LY354740]	–	effect on ketamine-disrupted working memory [3]: attenuation of the disruptive effects; effect on chemically induced seizures [4]: attenuates pentylenetetrazole- and picrotoxin-induced seizures
N[C@@]1(C(=O)O)CO[C@H]2[C@H](C(=O)O)[C@H]21 [LY379268]	–	effect on REM sleep and fast EEG [5]: suppresses rapid eye movement (REM) sleep and fast EEG
CSCC[C@H](N)C(=O)N[C@@]1(C(=O)O)CS(=O)(=O)[C@H]2[C@H](C(=O)O)[C@H]21 [LY2140023]	–	positive and negative symptoms of schizophrenia [6]: statistically significant improvements
N[C@]1(C(=O)O)[C@H]2[C@@H](C[C@H]1OCc1ccc(Cl)c(Cl)c1)[C@]2(F)C(=O)O [MGS0039]	–	antidepressant-like effects [7]: dose-dependent antidepressant-like effects
Cc1c(OCc2cccc(-c3ccc(C(=O)O)cc3)c2)cc2c(c1C)C(=O)C(C1CCCC1)C2 (stereo not drawn) [biphenyl-indanone A]	–	antipsychotic- and anxiolytic-like effects [8]: antipsychotic- and anxiolytic-like effects in mice

— patent US9051331B2, “Substituted dihydro benzocycloalkyloxymethyl oxazolopyrimidinones, preparation and use thereof” (Sanofi, priority 2009, dated 2015)
